For series [1], the system named is mice. Kind of series: Pentylenetetrazol-induced seizure (anticonvulsant action). Format: in vivo, mice (OF 1). The note with it: Mus musculus, ip, i.p., 125 mg/kg pentylenetetrazol i.p. As to the method:
The purpose of this test which is carried out on mice is to determine whether the compounds of the invention, when given preventively by intraperitoneal route, are capable at certain doses of protecting some of the animals against the epileptic seizure produced by an adequate and predetermined dose of pentylenetetrazol which would be 100% fatal in the absence of the compound. The test was carried out on batches of 10 male OF 1 mice weighing about 25 g.

Series [2] concerns mice. Kind of series: Maximum electroshock seizure (anticonvulsant action). It is filed as in vivo, mice (OF 1). The note with it: for ED50: Mus musculus, ip, 0.25 h, i.p., 15 min after administration, protection of 50% against tonic seizures. As to the method: This seizure is characterized in the mouse by extension of the back paws for 5 to 10 seconds. The extension is similar to that observed during the tonicoclonic seizures provoked by chemical convulsants such as pentylenetetrazol or strychnine.
The test was carried out on batches of 10 mice of the OF 1 strain weighing about 22 g. […] Fifteen minutes later, each animal received an electric shock of twice threshold intensity (about 60 volts).
This latter value is indicated by the symbol HD50 or hypnotic dose 50 and the efficacy index by the fraction: [formula]

The test system of another series is rats. Kind of series: Anoxic seizure induced by gallamine triiodoethylate (antianoxic properties). Conditions: 2 millimols/kg. Format: in vivo, rats (OFA). The text has this: The injection of a sufficient dose of a synthetic curariform substance such as gallamine triiodoethylate provokes in the rat paralysis of the diaphragm. The animal then dies by asphyxia.
Male rats of the OFA strain and weighing about 250 g. were first anesthetized with ether in order to enable tracheotomy to be performed and cortical electrodes to be inserted. Each rat was then maintained under conditions of artificial respiration by means of an appropriate apparatus and a paralysing dose of gallamine triiodoethylate was administered by intraperitoneal route to eliminate spontaneous breathing. The electrocorticogram, the electrocardiogram and the rectal temperature were registered. After a period of 30 minutes during which stabilization of the registrations was obtained the animal was treated with 2 millimols/kg of an oily solution of tri-n-propylacetic acid or an aqueous solution of one of its alkali metal salts. The artificial respiratory apparatus was stopped 5 minutes after treatment and note was taken of the cardiac frequency every 10 seconds as well as of the period of time between the stopping of the apparatus and the appearance of the flat tracing on the electrocorticogram. This period of time represents the period of survival of the animal. The value of the cardiac frequency corresponding to moment of appearance of the flat tracing was calculated by extrapolation.
The same test was performed on control animals but without administration of a compound of the invention.

The nature of series [3]: Rota rod test (neurotoxicity). Format: in vivo. The note with it: mouse, ip, mice, intraperitoneal, 30 min after administration, read-out: NTD50 (neurotoxic dose 50) in the rota rod test. As to the method:
The test used was that known as the rota rod test (BOISSIER-Therapie 1958, XIII, pp. 1074-1118). This test aims at enabling the animals' ability to coordinate their movements to be evaluated. It is carried out on batches of 10 mice each weighing about 25 g. The compound to be tested is administered by intraperitoneal route to the animals of each batch so that each batch receives a higher dose than that given to the preceding batch. Thirty minutes after administration, the mice are placed for two minutes on a wooden roller of 4.8 cm diameter which turns at the rate of 4 revolutions per minute. The roller has a rough surface to prevent the animals from slipping.
By this means, the neurotoxic dose 50 (NTD 50) can be determined, i.e. the dose of the compound with which one half of the animals can no longer stay on the roller during the period of time fixed as the reference period.
In order to obtain an activity index figure 30 minutes after administration the rota rod test described above was also performed using for comparison a known myorelaxant, namely mephenesin.
On the technique in general: Falling from the rotarod earlier than controls is read as motor impairment.

Series [4] deals with mice. Kind of series: Traction test (myorelaxant properties). Format: in vivo, mice (OF 1). As to the method: This test enables sense of balance as well as muscular tonus and strength to be evaulated.
The test is carried out on groups of 10 male mice of the OF 1 strain weighing about 25 g. It consists of suspending the mice by the front paws to a horizontally stretched wire. Note is first taken of the time required by a group of control animals to effect recovery i.e. to place at least one of their back paws on the wire.

The term ED50 denotes the dose that gives a 50% effect, or the effect in half of the subjects. Consider `CCCC(CCC)(CCC)C(=O)O` [Tri-n-propylacetic acid, tri-n-propylacetic acid], for which the ED50 with mice [1] (0.125 h, 7 min. 30 sec after administration) is 87 mg/kg; with mice [1] (0.25 h, 15 min. after administration) it was 72 mg/kg; with mice [1] (0.5 h, 30 min. after administration), 124 mg/kg; in the series on mice [2] it was 145 mg/kg. Besides, in the series with rats, the “Increase of period of survival versus controls” value is recorded as 19%. In the series with rats (controls 74.3 ± 2.3), the Period of survival came out at 87.9 ± 3.7 s. Further, the “Cardiac frequency when the flat tracing appears” value in the series with rats (controls 150, calculated by extrapolation) is recorded as 109.

`CCC1(c2ccccc2)C(=O)NC(=O)NC1=O` [Phenobarbital, reference compound] came in with an ED50 in the series on mice [2] of 78 mg/kg. Also, the “Efficacy index (HD50 compared with ED50)” value in the series on mice [2] (electroshock ED50 versus hypnotic dose 50) is 1.3.

For `Cc1ccccc1OCC(O)CO` (stereo not drawn) [Mephenesin, reference compound], the TD50 at 0.5 h in series [3] was 100 mg/kg. In the series on mice [4] (Mus musculus, ip, 0.5 h, i.p., 30 min. after administration, read-out: ED50, loss of traction reflex), the ED50 stood at 250 mg/kg. The “Activity index: NTD50/ED50” value in the series with mice [4] (rota rod NTD50 / traction ED50, 30 minutes after administration) worked out at 0.4.

The values are drawn from patent US3958011A, “Compositions of tri-n-propylacetic acid and salts thereof and treatment of neurological disorders with such compositions” (priority 1972, dated 1976).
